{"source": "patent US12168781B2", "about": "“Production method for T cells or NK cells, medium for culturing T cells or NK cells, method for culturing T cells or NK cells, method for maintaining undifferentiated state of undifferentiated T cells, and growth-accelerating agent for T cells or NK cells” (KIRIN HOLDINGS KABUSHIKI KAISHA, priority 2018, dated 2024)", "format_in_all_cases": "cell-based, human", "key": {"T-iPS-T cells": {"system": "T-iPS-T cells", "assay": "Feeder-free culture of T-iPS-T cells, FACS count of PI-negative cells and CD45RA(+)CCR7(+) cells", "conditions": "6 days; for Number of CD45RA+CCR7+ cells: DMSO 3891 ± 3170; for Cell number: DMSO 16096 ± 10785", "protocol": "After washing, the cells were resuspended in the staining solution containing PI. Half the amount was analyzed using a BD LSR Fortessa cytometer (BD Bioscience) equipped with HTS, and all cells were recorded.\nThe concentration dependence of the bisbenzylisoquinoline alkaloid represented by the formula (X-1) or the formula (X-2) in feeder-free proliferation of T-iPS-T cells was examined. T-iPS-T cells were cultured using alpha-MEM medium supplemented with 15% FBS, 1% PSG, PAA (50 μg/mL), ITS-G, IL-7 (5 ng/mL), IL-12 (50 ng/mL), IL-15 (5 ng/mL), IL-18 (50 ng/mL), IL-21 (20 ng/mL), and z-VAD-fmk (10 μM).\nThe effect on culturing of T-iPS-T cells was evaluated by comparing a known compound that contributes to the proliferation of memory T cells with berbamine. […] DMSO (0.1%) that is a solvent for the compound was used as a control.\nThe number of events of PI-negative cells and the number of events of CD45RA(+)CCR7(+) cells in the PI-negative cells, which were analyzed by FlowJo 9, were used as data. Note that in a statistical analysis, a Student's t-test was used (*: p<0.05).\nThe effect of the combined use of berbamine with a MAPK cascade inhibitor on the proliferation of memory T cells was examined. […] The final concentration of each compound was set to 1 μM. DMSO (0.1%) that is a solvent for the compound was used as a control.\nThe number of events (#Cells) of CD45RA(+)CCR7(+) cells in the PI-negative cell population analyzed by FlowJo 9 was plotted and graphed. Note that in a statistical analysis, a Student's t-test was used (*: p<0.05, **P<0.01, ***P<0.001, ****P<0.0001)."}, "stem cell memory T cells": {"system": "stem cell memory T cells", "assay": "Proliferation of sorted stem cell memory T cells, trypan blue count", "conditions": "1 μM, stem cell memory T cells, 6, 9, 12 and 14 days, FIG. 18C", "from_the_text": "NPL 4 reports that hierarchy exists in T cells (FIG. 18A). In this Example, a fraction in which berbamine acts in T cells was verified. As a method therefor, PBMCs (CTL, Inc.) derived from a healthy subject was washed with a staining solution (PBS containing 2% FBS), and then stained with CCR7-APC (BioLegend, 353214), CD45RA-BV510 (BioLegend, 304142), CD45RO-APC-Cy7 (BioLegend, 307228), CD95-PC-Cy7 (BioLegend, 305622), CD8β-PE (Beckman, IM2217U), and CD4-BV421 (BioLegend, 317434).\nAfter washing, the cells were resuspended in the staining solution containing PI, and by using BD AriaII Cell Sorter (BD Bioscience), in the CD8β(+) cells, CCR7(+)CD45RA(+)CD95(−)CD45RO(−) was sorted as naive T cells, CCR7(+)CD45RA(+)CD95(+)CD45RO(+) was sorted as stem cell memory T cells, CCR7(+)CD45RA(−)CD45RO(+) was sorted as central memory T cells, and CCR7(−) CD45RA(−)CD45RO(+) was sorted as effector memory T cells.\nThe respective cells (about 3,000 cells/well) were seeded, and berbamine (BBM) at 1 μM or MilliQ water that is a solvent for the compound as a control was added thereto, and the cells were stimulated with CD3/CD28 Dynabeads (about 9,000 beads/well). The cells were cultured using the same culture medium as in Example 6.\nAfter 6, 9, 12, and 14 days of culturing, the number of viable cells was counted by a trypan blue method. In a statistical analysis, a Student's t-test was used (*: p<0.05)."}, "NK cells": {"system": "NK cells", "assay": "Proliferation of NK cells purified from PBMCs, trypan blue count", "conditions": "1 μM, 14 days, NK cells of 3 donors, FIG. 20(C)", "from_the_text": "The effect of berbamine on NK cells was examined. As a method therefor, NK cells were purified from PBMCs (CTL, Inc.) derived from 3 healthy donor subjects using NK Cell Isolation Kit, human (Miltenyi, 130-092-657).\nThe NK cells before and after purification were washed with a staining solution (PBS containing 2% FBS) and then stained with CD56-FITC (BioLegend, 362546) and CD3-APC-Cy7 (BioLegend, 300318).\nAfter washing, the cells were resuspended in the staining solution containing propidium iodide and measured using a BD FACSCanto II Flow Cytometer (BD Bioscience). The ratios of CD3(−) and CD56(+) cells in the PI-negative cell population analyzed by FlowJo 10 were confirmed.\nAs shown in FIG. 20(B), the ratios of CD3(−) and CD56(+) cells showing NK cells were 90% or more, which were sufficient. The purified NK cells (37,000 cells/well) were seeded, and cultured using MEM Alpha medium (Gibco, 12571-063) supplemented with 15% FBS (Biological Industries, 04-001-1A), L-Ascorbic Acid 2-Phosphate Sesquimagnesium Salt Hydrate (L-asc-2P, 50 μg/mL, nacalai tesque, 13570-66), ITS-G, IL-7 (10 ng/mL), and IL-15 (5 ng/mL).\nTo the culture medium, berbamine (BBM) at 1 μM or MilliQ water that is a solvent for the compound as a control was added, and after culturing for 14 days, the number of viable cells was counted by a trypan blue method."}}}
{"smiles": "COc1cc2c3cc1Oc1c(OC)c(OC)cc4c1[C@@H](Cc1ccc(O)c(c1)Oc1ccc(cc1)C[C@@H]3N(C)CC2)N(C)CC4", "note": "[berbamine]", "values": [{"measurement": "Number of CD45RA+CCR7+ cells", "setting": "T-iPS-T cells; 1 nM", "value": "5761 ± 4045"}, {"measurement": "Cell number", "setting": "T-iPS-T cells; 1 nM", "value": "18397 ± 10723"}, {"measurement": "Number of CD45RA+CCR7+ cells", "setting": "T-iPS-T cells; 3 nM", "value": "5667 ± 4255"}, {"measurement": "Cell number", "setting": "T-iPS-T cells; 3 nM", "value": "19540 ± 11587"}, {"measurement": "Number of CD45RA+CCR7+ cells", "setting": "T-iPS-T cells; 10 nM", "value": "6186 ± 3617"}, {"measurement": "Cell number", "setting": "T-iPS-T cells; 10 nM", "value": "24672 ± 10675 **"}, {"measurement": "Number of CD45RA+CCR7+ cells", "setting": "T-iPS-T cells; 30 nM", "value": "7186 ± 4180 *"}, {"measurement": "Cell number", "setting": "T-iPS-T cells; 30 nM", "value": "30885 ± 12249 **"}, {"measurement": "Number of CD45RA+CCR7+ cells", "setting": "T-iPS-T cells; 100 nM", "value": "10224 ± 3801 **"}, {"measurement": "Cell number", "setting": "T-iPS-T cells; 100 nM", "value": "48026 ± 6597 **"}, {"measurement": "Number of CD45RA+CCR7+ cells", "setting": "T-iPS-T cells; 300 nM", "value": "12034 ± 6515 *"}, {"measurement": "Cell number", "setting": "T-iPS-T cells; 300 nM", "value": "54888 ± 5691 **"}, {"measurement": "number of CD45RA(+)CCR7(+) cells, rank among the 266 compounds", "setting": "T-iPS-T cells; 1 μM, FIG. 7", "value": "highest number of CD45RA(+)CCR7(+) cells"}, {"measurement": "proliferation of T-iPS-T cells (PI-negative cells and CD45RA(+)CCR7(+) cells) vs DMSO", "setting": "T-iPS-T cells; 1 μM, FIG. 12", "value": "significant proliferation effect"}, {"measurement": "Number of CD45RA+CCR7+ cells", "setting": "T-iPS-T cells; 1 μM", "value": "12957 ± 9483"}, {"measurement": "Cell number", "setting": "T-iPS-T cells; 1 μM", "value": "43432 ± 23926"}, {"measurement": "Number of CD45RA+CCR7+ cells", "setting": "T-iPS-T cells; 3 μM", "value": "13552 ± 10355"}, {"measurement": "Cell number", "setting": "T-iPS-T cells; 3 μM", "value": "43656 ± 29882"}, {"measurement": "Number of CD45RA+CCR7+ cells", "setting": "T-iPS-T cells; 10 μM", "value": "5650 ± 8552"}, {"measurement": "Cell number", "setting": "T-iPS-T cells; 10 μM", "value": "20559 ± 34130"}, {"measurement": "number of CD45RA(+)CCR7(+) cells compared with DMSO", "setting": "T-iPS-T cells; each compound 1 μM, FIG. 13", "value": "significant cell proliferation"}, {"measurement": "number of viable cells compared with MilliQ water", "setting": "stem cell memory T cells", "value": "significant enhancement of cell proliferation"}, {"measurement": "number of NK cells compared with MilliQ water", "setting": "NK cells", "value": "increase in the number of NK cells"}]}
